Measurements taken from patent publication US5866558A, “6-alkynyl steroids” (Regents of the University of Minnesota, priority 1997, dated 1999).
Values joined by “and” are separate entries in the source; they are usually repeats but may differ in a detail not shown here. Identical values can stand only once. Like-named read-outs stand apart in the source and are kept apart here.

Experiments:
aromatase [1] = molecular target: T1, aromatase (Homo sapiens, UniProt P11511); experiment: biochemical; format: biochemical; set-up: Microsomes were obtained from human placentas after normal deliveries; from tissue; host or cells: human placenta, microsomes (washed twice, lyophilized)
T1 sequence (P11511 1-503): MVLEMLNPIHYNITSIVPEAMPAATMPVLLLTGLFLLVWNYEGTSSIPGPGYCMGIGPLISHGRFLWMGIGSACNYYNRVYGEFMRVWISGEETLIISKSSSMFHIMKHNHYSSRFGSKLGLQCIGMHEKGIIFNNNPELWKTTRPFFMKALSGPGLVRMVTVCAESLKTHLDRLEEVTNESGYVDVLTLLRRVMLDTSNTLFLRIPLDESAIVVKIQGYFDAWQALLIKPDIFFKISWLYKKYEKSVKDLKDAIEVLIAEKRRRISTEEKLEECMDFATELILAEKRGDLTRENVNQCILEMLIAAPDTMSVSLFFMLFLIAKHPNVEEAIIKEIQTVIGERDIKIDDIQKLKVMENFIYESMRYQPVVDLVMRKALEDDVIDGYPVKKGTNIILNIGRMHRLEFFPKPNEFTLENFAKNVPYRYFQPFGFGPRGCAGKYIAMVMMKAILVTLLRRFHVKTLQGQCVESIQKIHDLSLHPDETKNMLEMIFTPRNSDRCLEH
Protocol: (§1) Test A. Enzyme Affinity Assay
(§2) Microsomes were obtained from human placentas after normal deliveries and prepared as described previously (Ryan, K. J. "Biological aromatization of steroids" J Biol. Chem. 1959, 234, 266-272). Following isolation of the microsomal pellets (washed twice), they were lyophilized and stored at -20° C.

aromatase [2] = molecular target: T1, aromatase; format: biochemical; set-up: Microsomes were obtained from human placentas after normal deliveries; from tissue; host or cells: human placenta, microsomes (washed twice, lyophilized)
aromatase [3] = molecular target: T1, aromatase; experiment: Aromatase inhibition, overall results of tests A, B, and C; format: biochemical; set-up: Microsomes were obtained from human placentas after normal deliveries; from tissue; host or cells: human placenta, microsomes (washed twice, lyophilized)
Protocol: as §1, §2
Test B. Evaluation of Time-Dependent Inhibition
This determination requires measurements at initial velocities of enzyme reaction. The enzyme activity is determined following different preincubation times at various inhibitor concentrations when assayed at a substrate concentration of at least ten times the Km of androstenedione.

aromatase [4] = molecular target: T1, aromatase; experiment: Test C. Ki Determination / enzyme inactivation kinetics (Kitz and Wilson); conditions: for T1/2 of enzyme inhibition / KI (inactivation): Table 2; for KI (inactivation): read-out: App. Ki(inact), apparent Ki for inactivation; for kinact: read-out: kcat
[5] = Incubation with rat liver homogenates (prodrug dehydration); format: in vitro ADME; conditions: gives compound (4)
Excerpt: Accordingly, the invention includes a compound of formula III, wherein R to R^5 are defined as above; or a pharmaceutically acceptable salt thereof. The invention also includes a pharmaceutical composition comprising a compound of formula III; or a pharmaceutically acceptable salt thereof; and a pharmaceutically acceptable diluent or carrier. Because alcohols of formula III are capable of acting as prodrugs for compounds of formula I, it may be advantageous to use an alcohol of formula III in place of a corresponding compound of formula I in any of the methods disclosed herein. Accordingly, the invention includes a method for treating a disease in a human or other mammal in need thereof in which aromatase has been implicated and inhibition of its action is desired, comprising administering to said human or mammal an effective amount of a compound of formula III; or a pharmaceutically acceptable salt thereof. The invention also includes a method for inhibiting aromatase in a mammal comprising administering to said mammal an effective amount of a compound of formula III; or a pharmaceutically acceptable salt thereof.

[6] = substrate: C[C@]12CCC(=O)C=C1CC[C@@H]1[C@@H]2CC[C@]2(C)C(=O)CC[C@@H]12; experiment: purified protein, by the assay type; conditions: other: natural substrate

Question: For `C[C@]12C=CC(=O)C=C1C=C[C@@H]1[C@@H]2CC[C@]2(C)C(=O)CC[C@@H]12` [1,4,6-ATD, androst-1,4,6-triene-3,17-dione], which Ki (aromatase [1]; Table 1, apparent Ki, read-out: Ki (apparent)) is on record?
Answer: 136 nM

Question: What about the IC50 (aromatase [1]; Table 1, human placental microsomes, read-out: IC50) of the same molecule?
Answer: 890 nM

Question: What about the “Type of Inhibition” value (aromatase [2]; Table 1) of the same molecule?
Answer: Irreversible/Inactivation

Question: With `C[C@]12CCC(=O)C(O)=C1CC[C@@H]1[C@@H]2CC[C@]2(C)C(=O)CC[C@@H]12` [4-Hydroxy AD, 4-hydroxyandrostenedione] as the molecule, how does the IC50 (aromatase [1]; IC50) read?
Answer: 250 nM

Question: What about the Ki (aromatase [1]; read-out: Ki (apparent)) of the same molecule?
Answer: 40.8 nM

Question: And the “Type of Inhibition” value (aromatase [2])?
Answer: Irreversible/Inactivation

Question: For `C#CC[C@H]1C[C@@H]2[C@H](CC[C@]3(C)C(=O)CC[C@@H]23)[C@H]2CCC(=O)C=C12` [6α-Propargyl ED], which IC50 (aromatase [1]; IC50) is on record?
Answer: 430 nM

Question: And the “Type of Inhibition” value (aromatase [2])?
Answer: Reversible

Question: With `C#CC[C@H]1C[C@@H]2[C@H](CC[C@]3(C)C(=O)CC[C@@H]23)[C@@]2(C)CCC(=O)C=C12` [6α-propynyl compound, 6α-(2-propynyl)androst-4-ene-3,17-dione] as the molecule, how does the “enzyme affinity compared with other known inhibitors” value (aromatase [1]) read?
Answer: greater enzyme affinty than other known inhibitors

Question: Which “aromatase inhibitory properties, in words” value (aromatase [3]) does the source give for `C#CC[C@@H]1C[C@@H]2[C@H](CC[C@]3(C)C(=O)CC[C@@H]23)[C@@]2(C)CCC(=O)C=C12` [6β-Propargyl AD, 6β-Propargyl-4-androstene-3,17-dione] here?
Answer: superior to other known aromatase inhibitors

Question: What about the Ki (aromatase [1]; Ki (apparent)) of the same molecule?
Answer: 9.8 nM and 87.5 nM

Question: And the “T1/2 of enzyme inhibition” value (aromatase [4])?
Answer: 7.7 min

Question: And the KI (inactivation) (aromatase [4])?
Answer: 46.8 nM

Question: And the kinact (aromatase [4])?
Answer: 0.0015 s⁻¹

Question: And the “irreversibility / mechanism of inhibition” value (aromatase [4]; test C)?
Answer: irreversibly bound to the enzyme

Question: What about the “affinity for the enzyme site relative to natural substrate androstenedione” value (aromatase [4]; vs androstenedione Km) of the same molecule?
Answer: about five times greater

Question: For `C#CC[C@@H]1C[C@@H]2[C@H](CC[C@]3(C)C(=O)CC[C@@H]23)[C@H]2CCC(=O)C=C12` [6β-Propargyl ED, 6β-Propargyl-4-estrene-3,17-dione], which IC50 (aromatase [1]; IC50) is on record?
Answer: 98 nM

Question: And the Ki (aromatase [1]; Ki (apparent))?
Answer: 43.5 nM

Question: And the “T1/2 of enzyme inhibition” value (aromatase [4])?
Answer: 9.75 min

Question: What about the KI (inactivation) (aromatase [4]) of the same molecule?
Answer: 15.4 nM

Question: And the kinact (aromatase [4])?
Answer: 0.0012 s⁻¹

Question: And the “Type of Inhibition” value (aromatase [2])?
Answer: Irreversible/Inactivation

Question: Which IC50 (aromatase [1]; IC50) does the source give for `C#CC[C@]12CCC(=O)C=C1CC[C@@H]1[C@@H]2CC[C@]2(C)C(=O)CC[C@@H]12` [10β-Propargyl ED, 10-(2-propynyl)estr-4-ene-3,17-dione] here?
Answer: 42 nM

Question: What about the Ki (aromatase [1]; Ki (apparent)) of the same molecule?
Answer: 26.7 nM

Question: What about the “Type of Inhibition” value (aromatase [2]) of the same molecule?
Answer: Irreversible/Inactivation

Question: For `C#CC[C@@H]1C[C@H]2[C@@H]3CCC(=O)[C@@]3(C)CC[C@@H]2[C@@]2(C)CCC(=O)C[C@]12O` [compound (3)], which “dehydration in the presence of rat liver homogenates” value [5] is on record?
Answer: found to dehydrate in the presence of the homogenates to give compound (4)

B1: aromatase (Homo sapiens) (protein)
chain: T1 sequence (P11511 1-503)
Question: For B1, which Km [6] is on record?
Answer: 0.055 µM
